3 compounds from US20120046276A1, “Tuberculosis treatment using pleuromutilin derivatives” (priority 2002, published 2012) can be followed below.

Common to all, as to type: cell-based
Assay [1] has as its system Mycobacterium tuberculosis strain 7. The assay is described as follows: Agar Dilution Test (MIC), strain 7 (Isoniacid R, Rifampicin S, Streptomycin R). The note with it: TABLE A; strain 7; MIC determined after 3, 4 and 5 weeks.
Assay [2] has as its system Mycobacterium tuberculosis strain 15 (labor strain 137 kV). As to the kind of experiment: Agar Dilution Test (MIC), strain 15 = labor strain 137 kV (Isoniacid S, Rifampicin S, Streptomycin S). The note with it: TABLE A; strain 15; MIC determined after 3, 4 and 5 weeks. For orientation: In agar dilution, organisms are placed on agar that contains the substance at set levels.

In assay [3] the test system is Mycobacterium tuberculosis strain 6. As to the kind of experiment: Agar Dilution Test (MIC), strain 6 (Isoniacid S, Rifampicin S, Streptomycin S). Conditions: TABLE A; strain 6; MIC determined after 3, 4 and 5 weeks.
In assay [4] the test system is Mycobacterium tuberculosis strain 14. The assay is described as follows: Agar Dilution Test (MIC), strain 14 (Isoniacid S, Rifampicin S, Streptomycin S). Conditions: TABLE A; strain 14; MIC determined after 3, 4 and 5 weeks.
The subject of assay [5] is Mycobacterium tuberculosis strain 9. The assay is described as follows: Agar Dilution Test (MIC), strain 9 (Isoniacid R, Rifampicin S, Streptomycin R). The note with it: TABLE A, MIC determined after 3, 4 and 5 weeks.
For assay [6], the system named is Mycobacterium tuberculosis strain 1. The assay is described as follows: Agar Dilution Test (MIC), strain 1 (Isoniacid S, Rifampicin S, Streptomycin S). Conditions: TABLE A; strain 1; MIC determined after 3, 4 and 5 weeks.
Assay [7] has as its system Mycobacterium tuberculosis strain 13. As to the kind of experiment: Agar Dilution Test (MIC), strain 13 (Isoniacid S, Rifampicin S, Streptomycin S). The note with it: TABLE A; strain 13; MIC determined after 3, 4 and 5 weeks.
In assay [8] the test system is Mycobacterium tuberculosis strain 2. As to the kind of experiment: Agar Dilution Test (MIC), strain 2 (Isoniacid S, Rifampicin S, Streptomycin S). Conditions: TABLE A; strain 2; MIC determined after 3, 4 and 5 weeks.
Assay [9] concerns Mycobacterium tuberculosis strain 10. As to the kind of experiment: Agar Dilution Test (MIC), strain 10 (Isoniacid S, Rifampicin S, Streptomycin S). The note with it: TABLE A; strain 10; MIC determined after 3, 4 and 5 weeks.
In assay [10] the test system is Mycobacterium tuberculosis strain 11. As to the kind of experiment: Agar Dilution Test (MIC), strain 11 (Isoniacid S, Rifampicin S, Streptomycin S). The note with it: TABLE A; strain 11; MIC determined after 3, 4 and 5 weeks.
Assay [11] has as its system Mycobacterium tuberculosis strain 5. The assay is described as follows: Agar Dilution Test (MIC), strain 5 (Isoniacid R, Rifampicin R, Streptomycin S). The note with it: TABLE A; strain 5; MIC determined after 3, 4 and 5 weeks.
The test system of assay [12] is Mycobacterium tuberculosis strain 4. As to the kind of experiment: Agar Dilution Test (MIC), strain 4 (Isoniacid R, Rifampicin R, Streptomycin R). The note with it: TABLE A; strain 4; MIC determined after 3, 4 and 5 weeks.
Assay [13] relates to Mycobacterium tuberculosis strain 12. As to the kind of experiment: Agar Dilution Test (MIC), strain 12 (Isoniacid S, Rifampicin S, Streptomycin S). The note with it: TABLE A; strain 12; MIC determined after 3, 4 and 5 weeks.
Assay [14] concerns Mycobacterium tuberculosis strain 8. The assay is described as follows: Agar Dilution Test (MIC), strain 8 (Isoniacid S, Rifampicin R, Streptomycin S). Conditions: TABLE A; strain 8; MIC determined after 3, 4 and 5 weeks.
In assay [15] the test system is Mycobacterium tuberculosis strain 3. The assay is described as follows: Agar Dilution Test (MIC), strain 3 (Isoniacid R, Rifampicin R, Streptomycin S). Conditions: TABLE A; strain 3; MIC determined after 3, 4 and 5 weeks.

SMILES strings stand for the structures.

Consider `[H]/N=C(/N)N[C@H]1[C@H](O)[C@@H](O)[C@H](O[C@@H]2O[C@@H](C)[C@](O)(C=O)[C@H]2O[C@@H]2O[C@@H](CO)[C@H](O)[C@@H](O)[C@@H]2NC)[C@@H](N/C(N)=N\[H])[C@@H]1O` [Streptomycin], for which the “sensible (S) or resistant (R)” value is “R (A strain is designated as resistant if its MIC in testing according to the General Test Procedure after 3 to 5 weeks is higher than 20 μg/ml)” in assay [1]; “S (sensible (S))” in assay [2]; “S (sensible (S))” in assay [3]; “S (sensible (S))” in [4]; “R (A strain is designated as resistant if its MIC in testing according to the General Test Procedure after 3 to 5 weeks is higher than 20 μg/ml)” in [5]; “S (sensible (S))” in assay [6]. Further, the “sensible (S) or resistant (R)” value was “S (sensible (S))” in assay [7]; “S (sensible (S))” in assay [8]; “S (sensible (S))” in assay [9]; “S (sensible (S))” in assay [10]; “S (sensible (S))” in assay [11]; “R (A strain is designated as resistant if its MIC in testing according to the General Test Procedure after 3 to 5 weeks is higher than 20 μg/ml)” in assay [12]. For the same compound, the “sensible (S) or resistant (R)” value in [13], in [14] and in assay [15] was “S (sensible (S))” in each case.
On to `CO[C@H]1/C=C/O[C@@]2(C)Oc3c(C)c(O)c4c(O)c(c(/C=N/N5CCN(C)CC5)c(O)c4c3C2=O)NC(=O)/C(C)=C\C=C\[C@H](C)[C@H](O)[C@@H](C)[C@@H](O)[C@@H](C)[C@H](OC(C)=O)[C@@H]1C` [Rifampicin], for which the “sensible (S) or resistant (R)” value in [1], in assay [2], in assay [3], in assay [4], in [5] and in [6] was “S (sensible (S))” each time. In addition, the “sensible (S) or resistant (R)” value is “S (sensible (S))” in [7]; “S (sensible (S))” in [8]; “S (sensible (S))” in assay [9]; “S (sensible (S))” in assay [10]; “R (A strain is designated as resistant if its MIC in testing according to the General Test Procedure after 3 to 5 weeks is higher than 20 μg/ml)” in assay [11]; “R (A strain is designated as resistant if its MIC in testing according to the General Test Procedure after 3 to 5 weeks is higher than 20 μg/ml)” in assay [12]. The “sensible (S) or resistant (R)” value in [13] is recorded as “S (sensible (S))”; in [14], “R (A strain is designated as resistant if its MIC in testing according to the General Test Procedure after 3 to 5 weeks is higher than 20 μg/ml)”; in [15] it was “R (A strain is designated as resistant if its MIC in testing according to the General Test Procedure after 3 to 5 weeks is higher than 20 μg/ml)”.
`NNC(=O)c1ccncc1` [Isoniacid]: the “sensible (S) or resistant (R)” value in assay [1] is recorded as “R (A strain is designated as resistant if its MIC in testing according to the General Test Procedure after 3 to 5 weeks is higher than 20 μg/ml)”; in assay [2], “S (sensible (S))”; in assay [3] it was “S (sensible (S))”; in [4] it was “S (sensible (S))”; in assay [5], “R (A strain is designated as resistant if its MIC in testing according to the General Test Procedure after 3 to 5 weeks is higher than 20 μg/ml)”; in assay [6] it was “S (sensible (S))”. Moreover, the “sensible (S) or resistant (R)” value was “S (sensible (S))” in assay [7]; “S (sensible (S))” in [8]; “S (sensible (S))” in assay [9]; “S (sensible (S))” in [10]; “R (A strain is designated as resistant if its MIC in testing according to the General Test Procedure after 3 to 5 weeks is higher than 20 μg/ml)” in assay [11]; “R (A strain is designated as resistant if its MIC in testing according to the General Test Procedure after 3 to 5 weeks is higher than 20 μg/ml)” in assay [12]. Moreover, the figures for the “sensible (S) or resistant (R)” value in [13], in assay [14] and in [15] were “S (sensible (S))”, “S (sensible (S))” and “R (A strain is designated as resistant if its MIC in testing according to the General Test Procedure after 3 to 5 weeks is higher than 20 μg/ml)”, respectively.
